# Measurements as given in patent US7666876B2, “Buprenorphine formulations for intranasal delivery” (Vernalis (R&D) Limited, priority 2002, dated 2010).
# Experiment: Effect of dextrose and mannitol concentration on buprenorphine solubility in pectin solution (hplc)
# Conditions: aqueous solution containing 20 mg/ml pectin, across the measured pH range
# Experimental: Solutions containing pectin (Slendid 100) (20 mg/ml) were prepared at pH 3, 4, 5 and 6 (pH adjustments were made with 0.1M HCl or 0.1M meglumine). […] An excess of buprenorphine hydrochloride was then added and the mixture stirred overnight at 18° C. Saturated buprenorphine hydrochloride solutions were produced by passing each mixture through a 0.2 μm polycarbonate membrane filter. The concentration of buprenorphine hydrochloride in the filtrate was determined by hplc.
structure (smiles),measurement,value
CO[C@]12CCC3(C[C@@H]1[C@@](C)(O)C(C)(C)C)[C@H]1Cc4ccc(O)c5c4[C@@]3(CCN1CC1CC1)C2O5 (stereo partly shown) [Buprenorphine],Effect of dextrose or mannitol concentration on buprenorphine solubility,not affected significantly
